# Data taken from patent publication US20100273189A1, “NON SEPARATION ASSAYS WITH SELECTIVE SIGNAL INHIBITORS” (BECKMAN COULTER, INC., priority 2009, published 2010).
# “And” between values parts separate entries of the source, which are not always exact repeats. Equal values may be shown once.
# Experiments:
# Format in all cases: biochemical
# [1] = test system: CK-MB; assay: CK-MB assay, AK-Ab1 particle + HRP-Ab2 conjugate; settings: for RLU: replicates
# Description: This example describes a method of detecting CK-MB (Creatine Kinase Myocardial Band) using an AK-Abl particle prepared as set forth in Example 3 and a HRP-Ab2 conjugate prepared as set forth in Example 4 where Ab2 represents an antibody to CK-MB. This method employed ascorbic acid to decrease background signal.
# (§1) HRP-Ab2 conjugate suspensions were prepared at 1.0 μg/mL and contained either 0 or 1 mM ascorbic acid. Samples consisted of human serum samples with the indicated mounts of CK-MB added or no CK-MB as a control. The test procedure consisted of adding 15 μL of 1.0 μg/mL HRP-Ab2 conjugate and 35 μL of MES buffer containing 1 mg/mL BSA and 1 mg/mL MIgG, pH 5.9 to the reaction vessel. Next, 25 μL of patient serum sample was added, followed by 25 μL of 1.0 mg/mL AK-Abl conjugate suspension thereby obtaining 100 μL of total volume in the reaction vessel. After 15.2 minutes, 100 μL of trigger solution A was added to the reaction vessel and the light intensity was recorded on the modified DxI instrument. Chemiluminescence intensity is expressed in Relative Light Units (RLU).
# [2] = test system: cTnI; assay: cTnI detection via heterogeneous assay
# Description: This example describes a method of detecting cTnI (Cardiac Troponin I) using an AK-Abl particle prepared e.g., as set forth in Example 3 and a HRP-Ab2 conjugate prepared e.g., as set forth in Example 4 where Ab2 represents an antibody to cTnI. The effect of ascorbic acid on background signal was investigated.
# as §1, with “of cTnI” for “of CK-MB”, “no cTnI” for “no CK-MB”, “adding 20” for “adding 15”, “and 30” for “and 35”
# [3] = test system: TnI; assay: Effect of trigger pH: TnI on LodeStars with ascorbate
# Description: B. In order to determine the effect of trigger solution pH on a variety of test assay systems, a series of experiments were conducted varying trigger pH. […] In the tables, two pH values are listed for each data set. The first is the pH of the buffer sample added to the reaction mixture. The second is the resulting pH of the final reaction mix.
# [4] = With Ascorbate, S1, CK-MB 600 pg/mL
# [5] = With Ascorbate, S2, CK-MB 3200 pg/mL
# [6] = With Ascorbate, S3, CK-MB 9150 pg/mL
# [7] = With Ascorbate, S4, CK-MB 26300 pg/mL
# [8] = With Ascorbate, S5, CK-MB 94600 pg/mL
# [9] = With Ascorbate, S6, CK-MB 268750 pg/mL
# [10] = With Ascorbate, S7, CK-MB 1500000 pg/mL
# [11] = with ascorbic acid, S1, cTnI 172 pg/mL
# [12] = with ascorbic acid, S2, cTnI 366 pg/mL
# [13] = with ascorbic acid, S3, cTnI 1368 pg/mL
# [14] = with ascorbic acid, S4, cTnI 11136 pg/mL
# [15] = with ascorbic acid, S5, cTnI 27922 pg/mL
# [16] = with ascorbic acid, S6, cTnI 106000 pg/mL
# [17] = Control (7.5), S1, TnI 172 ng/ml
# [18] = Control (7.5), S2, TnI 366 ng/ml
# [19] = Control (7.5), S3, TnI 1368 ng/ml
# [20] = Control (7.5), S4, TnI 11136 ng/ml
# [21] = Control (7.5), S5, TnI 27922 ng/ml
# [22] = Control (7.5), S6, TnI 10600 ng/ml
# [23] = pH 6.0 (5.9), S1, TnI 172 ng/ml
# [24] = pH 6.0 (5.9), S2, TnI 366 ng/ml
# [25] = pH 6.0 (5.9), S3, TnI 1368 ng/ml
# [26] = pH 6.0 (5.9), S4, TnI 11136 ng/ml
# [27] = pH 6.0 (5.9), S5, TnI 27922 ng/ml
# [28] = pH 6.0 (5.9), S6, TnI 10600 ng/ml
# [29] = pH 7.0 (7.1), S1, TnI 172 ng/ml
# [30] = pH 7.0 (7.1), S2, TnI 366 ng/ml
# [31] = pH 7.0 (7.1), S3, TnI 1368 ng/ml
# [32] = pH 7.0 (7.1), S4, TnI 11136 ng/ml
# [33] = pH 7.0 (7.1), S5, TnI 27922 ng/ml
# [34] = pH 7.0 (7.1), S6, TnI 10600 ng/ml
# [35] = pH 8.0 (7.9), S1, TnI 172 ng/ml
# [36] = pH 8.0 (7.9), S2, TnI 366 ng/ml
# [37] = pH 8.0 (7.9), S3, TnI 1368 ng/ml
# [38] = pH 8.0 (7.9), S4, TnI 11136 ng/ml
# [39] = pH 8.0 (7.9), S5, TnI 27922 ng/ml
# [40] = pH 8.0 (7.9), S6, TnI 10600 ng/ml
# [41] = pH 9.0 (8.7), S1, TnI 172 ng/ml
# [42] = pH 9.0 (8.7), S2, TnI 366 ng/ml
# [43] = pH 9.0 (8.7), S3, TnI 1368 ng/ml
# [44] = pH 9.0 (8.7), S4, TnI 11136 ng/ml
# [45] = pH 9.0 (8.7), S5, TnI 27922 ng/ml
# [46] = pH 9.0 (8.7), S6, TnI 10600 ng/ml
smiles,measurement,setting,value
"O=C1O[C@H]([C@@H](O)CO)C(O)=C1O [Ascorbic Acid, Ascorbic acid]",RLU,"[1]; With Ascorbate (1 mM in HRP-Ab2 conjugate), Buffer, CK-MB 0 pg/mL",1616 RLU and 1536 RLU and 1592 RLU
same,Mean RLU,"[1]; With Ascorbate, Buffer, CK-MB 0 pg/mL",1581 RLU
same,Mean RLU,[1]; [4],883 RLU
same,RLU,[1]; [4],948 RLU and 852 RLU and 848 RLU
same,Mean RLU,[1]; [5],4051 RLU
same,S/S1,[1]; [5],4.59
same,RLU,[1]; [5],4080 RLU and 3928 RLU and 4144 RLU
same,Mean RLU,[1]; [6],13295 RLU
same,S/S1,[1]; [6],15.06
same,RLU,[1]; [6],12756 RLU and 13108 RLU and 14020 RLU
same,Mean RLU,[1]; [7],40407 RLU
same,S/S1,[1]; [7],45.78
same,RLU,[1]; [7],41384 RLU and 39448 RLU and 40388 RLU
same,Mean RLU,[1]; [8],232489 RLU
same,S/S1,[1]; [8],263.39
same,RLU,[1]; [8],222832 RLU and 249468 RLU and 225168 RLU
same,Mean RLU,[1]; [9],1195177 RLU
same,S/S1,[1]; [9],1354.05
same,RLU,[1]; [9],1187736 RLU and 1121256 RLU and 1276540 RLU
same,Mean RLU,[1]; [10],3324829 RLU
same,S/S1,[1]; [10],3766.80
same,RLU,[1]; [10],3266772 RLU and 3290024 RLU and 3417692 RLU
same,background signal,"[2]; in the presence of ascorbic acid, in words",significant reduction in background signal
same,RLU,"[2]; second column pair (with 1 mM ascorbic acid in conjugate), S0, cTnI 0 pg/mL",422 RLU
same,RLU,[2]; [11],1320 RLU
same,S/S0,[2]; [11],3.1
same,RLU,[2]; [12],2778 RLU
same,S/S0,[2]; [12],6.6
same,RLU,[2]; [13],10254 RLU
same,S/S0,[2]; [13],24.3
same,RLU,[2]; [14],108628 RLU
same,S/S0,[2]; [14],257.4
same,RLU,[2]; [15],325082 RLU
same,S/S0,[2]; [15],770.3
same,RLU,[2]; [16],2380772 RLU
same,S/S0,[2]; [16],5641.6
same,Ave RLUs,"[3]; Control (7.5), S0, TnI 0 ng/ml",543 RLU
same,Ave RLUs,[3]; [17],"1,013 RLU"
same,S/S0,[3]; [17],1.9
same,Ave RLUs,[3]; [18],"1,815 RLU"
same,S/S0,[3]; [18],3.3
same,Ave RLUs,[3]; [19],"5,981 RLU"
same,S/S0,[3]; [19],11.0
same,Ave RLUs,[3]; [20],"53,524 RLU"
same,S/S0,[3]; [20],98.6
same,Ave RLUs,[3]; [21],"155,889 RLU"
same,S/S0,[3]; [21],287.3
same,Ave RLUs,[3]; [22],"1,235,103 RLU"
same,S/S0,[3]; [22],2276.0
same,Ave RLUs,"[3]; pH 6.0 (5.9), S0, TnI 0 ng/ml",273 RLU
same,Ave RLUs,[3]; [23],379 RLU
same,S/S0,[3]; [23],1.4
same,Ave RLUs,[3]; [24],600 RLU
same,S/S0,[3]; [24],2.2
same,Ave RLUs,[3]; [25],"1,452 RLU"
same,S/S0,[3]; [25],5.3
same,Ave RLUs,[3]; [26],"11,579 RLU"
same,S/S0,[3]; [26],42.4
same,Ave RLUs,[3]; [27],"32,519 RLU"
same,S/S0,[3]; [27],119.0
same,Ave RLUs,[3]; [28],"216,379 RLU"
same,S/S0,[3]; [28],791.6
same,Ave RLUs,"[3]; pH 7.0 (7.1), S0, TnI 0 ng/ml",519 RLU
same,Ave RLUs,[3]; [29],"1,031 RLU"
same,S/S0,[3]; [29],2.0
same,Ave RLUs,[3]; [30],"1,703 RLU"
same,S/S0,[3]; [30],3.3
same,Ave RLUs,[3]; [31],"5,695 RLU"
same,S/S0,[3]; [31],11.0
same,Ave RLUs,[3]; [32],"57,599 RLU"
same,S/S0,[3]; [32],111.1
same,Ave RLUs,[3]; [33],"145,140 RLU"
same,S/S0,[3]; [33],279.8
same,Ave RLUs,[3]; [34],"938,075 RLU"
same,S/S0,[3]; [34],1808.6
same,Ave RLUs,"[3]; pH 8.0 (7.9), S0, TnI 0 ng/ml",699 RLU
same,Ave RLUs,[3]; [35],"1,319 RLU"
same,S/S0,[3]; [35],1.9
same,Ave RLUs,[3]; [36],"2,359 RLU"
same,S/S0,[3]; [36],3.4
same,Ave RLUs,[3]; [37],"8,048 RLU"
same,S/S0,[3]; [37],11.5
same,Ave RLUs,[3]; [38],"72,016 RLU"
same,S/S0,[3]; [38],103.1
same,Ave RLUs,[3]; [39],"225,113 RLU"
same,S/S0,[3]; [39],322.2
same,Ave RLUs,[3]; [40],"1,574,655 RLU"
same,S/S0,[3]; [40],2253.8
same,Ave RLUs,"[3]; pH 9.0 (8.7), S0, TnI 0 ng/ml",413 RLU
same,Ave RLUs,[3]; [41],716 RLU
same,S/S0,[3]; [41],1.7
same,Ave RLUs,[3]; [42],"1,097 RLU"
same,S/S0,[3]; [42],2.7
same,Ave RLUs,[3]; [43],"3,999 RLU"
same,S/S0,[3]; [43],9.7
same,Ave RLUs,[3]; [44],"36,424 RLU"
same,S/S0,[3]; [44],88.1
same,Ave RLUs,[3]; [45],"107,020 RLU"
same,S/S0,[3]; [45],258.9
same,Ave RLUs,[3]; [46],"855,956 RLU"
same,S/S0,[3]; [46],2070.9
